Measured values published in PMC10945501, “Development and In Vivo Evaluation of Small-Molecule Ligands for Positron Emission Tomography of Immune Checkpoint Modulation Targeting Programmed Cell Death 1 Ligand 1” (Journal of Medicinal Chemistry, 2024).

Assays:
[1] = tested on: PD-L1^± ES2 tumors (ovarian carcinoma); parameters: method as in PMID 37450644; conditions: ex vivo autoradiography; cited from earlier work
[2] = tested on: PD-L1^+ / PD-L1^– H358 tumors (lung adenocarcinoma); parameters: method as in PMID 37450644; conditions: ex vivo autoradiography; cited from earlier work
[3] = tested on: CHO and CHO-hPD-L1 xenografts; assay: Ex vivo biodistribution; format: in vivo, NSG mice
Description: Ex vivo biodistribution was assessed 30, 40, and 70 min after tracer application in NSG mice. Radioactivity was determined using a Wizard[2] γ counter. Samples were measured for 30 s, CPM-corrected for background counts, and half-life corrected to time of tracer injection. Organs were wet-weighted, and the percentage of injected dose per gram of organ was calculated (% ID/g).

[4] = Plasma stability, mouse plasma; format: in vitro ADME; conditions: 60 min, 37 °C
Description: (§1) Plasma stability was tested against pooled mouse plasma (Merck KGaA, Darmstadt, Germany) and pooled human plasma (Merck KGaA, Darmstadt, Germany). 25 μL of formulated radiotracer were incubated with 1250 μL of plasma at 37 °C. The amount of intact tracer (%) was determined after 0, 15, 30, and 60 min. 100 μL aliquots were quenched with the same amount of MeCN, centrifuged for 4 min at 4 °C with 21,380g, and analyzed by HPLC setup 1.

[5] = Plasma stability, human plasma; format: in vitro ADME; conditions: 60 min, 37 °C
Description: as §1

[6] = Plasma protein binding (centrifugal filters); format: in vitro ADME; conditions: 10 kDa centrifugal filters
Description: Plasma protein binding was assessed using 10 kDa centrifugal filters (Merck KGaA, Darmstadt, Germany). After centrifugation for 30 min at 21,380g, filtrates, and filters were measured separately in a γ counter. In addition, water was used instead of plasma to assess the nonspecific binding to filters.

[7] = tested on: CHO and CHO-hPD-L1 xenografts; assay: In vivo dynamic μPET/CT imaging; conditions: NSG mice, i.v.
Description: Body weight and tumor development were monitored every second day by caliper measurement. […] The animals were subjected to μPET imaging, when tumors reached a volume of at least 200 mm^3. […] There were no losses. […] The mice were placed in the μPET/CT scanner (Inveon, Siemens Medical Solution, Knoxville, USA), covering the total body, and dynamic imaging was performed for up to 60 min to follow tracer distribution. Images were recorded with frames of 4 × 2 […], and 1 × 500 s. During the whole imaging procedure, vital parameters (respiration, body temperature) were continuously monitored using a dedicated monitoring unit (bioVet; m2m imaging, Cleveland, USA) to ensure the depth of anesthesia and well-being of the animals. […] Volumes of interest (VOIs) were created semiautomatically based on fused μPET and μCT images using PMOD software (Version 3.807; Bruker, Mannheim, Germany). The tracer uptake in the VOIs is normalized to injected dose and volume and expressed as percentage injected dose per cubic centimeter (% ID/cc).

[8] = Metabolic stability in human liver microsomes; format: in vitro ADME; conditions: 60 min, 37 °C
Description: Metabolic stability was tested using pooled, mixed gender, 20 donor human liver microsomes (HLM) (Corning, Corning, USA, Cat. #452161) according to the supplied protocol. In short, 15 μL of HLM (20 mg/mL), 15 μL of nicotinamide adenine dinucleotide phosphate (NADPH) regenerating system solution A (Corning, Corning, USA), 3 μL of solution B (Corning, Corning, USA), and 257 μL of a 1:10 dilution of 10× phosphate-buffered saline (PBS) concentrate (MORPHISTO, Offenbach am Main, Germany) were preincubated at 37 °C for 10 min.
Aliquots were drawn 0, 15, 30, and 60 min after the addition of 5 μL radiotracer, subsequently quenched with the same amount of MeCN, centrifuged for 4 min at 21,380g, and analyzed by HPLC setup 1 for the amount of intact tracer (%).

PD-L1 = tested on: PD-L1; parameters: method as in PMID 37409670; conditions: B16–F10, no control xenograft; cited from earlier work

Compound: N#Cc1c(-c2ccc([18F])cc2)csc1OCc1ccc(CN)cc1 [2-((4-(aminomethyl)benzyl)oxy)-4-(4-[^18F]fluorophenyl)thiophene-3-carbonitrile]
- difference in uptake PD-L1^+ vs PD-L1^– tumors [1]: not observed
- fold higher uptake in PD-L1^+ compared to PD-L1^– tumors [2]: 1.4 fold

Compound: Cc1c(COc2cc(OCc3ccnc(C#N)c3)c(CN([11CH3])CCO)cc2Cl)cccc1-c1ccc2c(c1)OCCO2 [[^11C]5c]
- organ uptake (ex vivo biodistribution) ([3]; NSG mice): substantial uptake in the liver, lung, and kidneys
- ex vivo uptake marked in Figure 9B ([3]; NSG mice, 30, 40 or 70 min p.i.): < 1.5 % ID/g
- intact tracer in mouse plasma [4]: over 99%
- intact tracer in human plasma [5]: over 99%
- fraction unbound [6]: 0.011
- organ uptake (μPET) [7]: high uptake in the liver, intestine, gallbladder, and kidneys
- uptake in CHO and CHO-hPD-L1 xenografts (μPET) ([7]; dynamic scan up to 60 min): < 1.2 % ID/cc
- intact tracer after human liver microsomes [8]: 49.3%

Compound: Cc1c(COc2cc(OCc3cccc(OS(=O)(=O)[18F])c3)c(CNC(CO)(CO)CO)cc2Cl)cccc1-c1ccc2c(c1)OCCO2 [[^18F]LGSu-1]
- PD-L1^+ tumor uptake (PD-L1): 3.3 % ID/mL
